We go through 6 molecules from ChEMBL document CHEMBL1201862, “PubChem BioAssay data set” (2004).

Structures are written as SMILES. Activity calls are given as the source filed them.

Assay [1] concerns the target Tyrosine-protein kinase Fer (Homo sapiens, UniProt P16591). It is filed as functional.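 Further: FER tested as one member of a kinome panel.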
A further assay deals with T1, Streptokinase A (Streptococcus pyogenes serotype M1, UniProt P10520).
T1 sequence (P10520 whole entry): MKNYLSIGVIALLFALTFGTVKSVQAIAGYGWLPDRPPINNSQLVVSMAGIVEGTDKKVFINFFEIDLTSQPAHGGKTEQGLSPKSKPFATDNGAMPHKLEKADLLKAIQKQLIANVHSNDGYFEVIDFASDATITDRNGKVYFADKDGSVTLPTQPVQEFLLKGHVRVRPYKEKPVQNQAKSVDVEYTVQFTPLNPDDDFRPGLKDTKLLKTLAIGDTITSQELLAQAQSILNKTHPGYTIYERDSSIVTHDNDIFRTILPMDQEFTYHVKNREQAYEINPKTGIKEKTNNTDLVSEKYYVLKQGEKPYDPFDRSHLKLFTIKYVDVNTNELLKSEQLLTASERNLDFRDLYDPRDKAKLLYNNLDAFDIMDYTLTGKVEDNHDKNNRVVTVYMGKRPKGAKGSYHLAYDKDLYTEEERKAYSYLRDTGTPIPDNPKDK
Kind of assay: viability-normalized secreted streptokinase activity reduction – plasminogen activation absorbance, OD405, dose response (AID 1914).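 Further: secreted streptokinase activity via plasminogen activation per viability signal from cell pellet.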 It is filed as functional, Streptococcus pyogenes M1 GAS.

The target in assay [2] is T2, RNA-binding protein pos-1 (Caenorhabditis elegans, UniProt G5EF15).
T2 sequence (G5EF15 whole entry): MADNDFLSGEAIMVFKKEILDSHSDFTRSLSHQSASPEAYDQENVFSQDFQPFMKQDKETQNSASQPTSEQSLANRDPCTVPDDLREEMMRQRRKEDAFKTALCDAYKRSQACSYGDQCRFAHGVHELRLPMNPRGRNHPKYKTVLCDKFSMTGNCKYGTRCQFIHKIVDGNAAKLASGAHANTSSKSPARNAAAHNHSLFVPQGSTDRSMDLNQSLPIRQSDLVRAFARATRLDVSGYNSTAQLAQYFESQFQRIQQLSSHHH
Briefly: disruptors of C. elegans POS-1 RNA interaction – biochemical, fluorescence polarization, dose response (AID 1964).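 Further: purified POS-1 fused to maltose binding protein made in E. coli; potency of compounds blocking POS-1 binding to fluorescent RNA.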 In general terms: Polarisation of emitted light reports the rotation of a fluorescent probe.

The nature of assay [3]: viability of HCT116 lacking mutant beta-catenin – cell-based, human colon tumor, dose response (AID 1045).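 Further: HCT116 colon tumor cells with beta catenin knocked out; cells exposed to compound for 60 hours.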 It is filed as functional.
The nature of assay [4]: luciferase reporter signal suppression in cells – H4 neuroglioma cells, luminescence, dose response (AID 1990). It is filed as functional, cell-based. Background: Reporter assays use an easily measured gene product as a stand-in for the process of interest.
Another assay has as its system Streptococcus. Briefly: GAS UMAA2166 growth inhibition – luminescence, BacTiterGlo, counter-screen for streptokinase expression inhibitor project, dose response (AID 1915).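 Further: potency for reduction of bacterial viability or growth.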 It is filed as functional, organism-based. (In general: The purpose of a counterscreen is to sort out artefacts and off-target activity.)
Assay [5] deals with Protein kinase C theta type (Homo sapiens, UniProt Q04759). Briefly: Navigating the Kinome. Panel member name: PRKCQ. In kind it is functional.
In assay [6] the target is Ribosomal protein S6 kinase alpha-3 (Homo sapiens, UniProt P51812). It is filed as functional.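 Further: measured within a kinome-wide profiling panel.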
Chain of Ribosomal protein S6 kinase alpha-3 (P51812 whole entry): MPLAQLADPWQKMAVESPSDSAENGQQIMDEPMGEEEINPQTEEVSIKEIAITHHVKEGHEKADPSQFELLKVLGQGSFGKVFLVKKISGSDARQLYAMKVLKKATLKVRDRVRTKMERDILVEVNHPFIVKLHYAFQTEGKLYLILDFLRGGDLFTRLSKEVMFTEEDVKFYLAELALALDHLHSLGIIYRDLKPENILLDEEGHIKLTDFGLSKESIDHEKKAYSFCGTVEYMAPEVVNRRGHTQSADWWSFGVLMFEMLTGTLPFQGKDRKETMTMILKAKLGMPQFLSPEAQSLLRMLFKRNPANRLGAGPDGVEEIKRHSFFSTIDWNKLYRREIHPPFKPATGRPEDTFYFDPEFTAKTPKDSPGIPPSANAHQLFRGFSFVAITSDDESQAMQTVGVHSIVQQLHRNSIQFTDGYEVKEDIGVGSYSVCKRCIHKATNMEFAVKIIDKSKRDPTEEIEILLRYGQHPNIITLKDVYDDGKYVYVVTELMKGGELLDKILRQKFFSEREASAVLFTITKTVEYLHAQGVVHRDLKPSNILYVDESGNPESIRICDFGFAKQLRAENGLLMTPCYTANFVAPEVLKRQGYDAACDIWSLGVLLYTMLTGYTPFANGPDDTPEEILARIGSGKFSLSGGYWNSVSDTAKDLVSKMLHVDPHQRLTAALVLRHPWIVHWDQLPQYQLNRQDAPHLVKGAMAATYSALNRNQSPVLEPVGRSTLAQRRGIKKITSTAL
The target of assay [7] is Mitogen-activated protein kinase kinase kinase kinase 2 (Homo sapiens, UniProt Q12851). It is filed as functional.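 Further: measured as one member of a kinome-wide kinase panel, with MAP4K2 as the panel entry.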
Chain of Mitogen-activated protein kinase kinase kinase kinase 2 (Q12851 whole entry): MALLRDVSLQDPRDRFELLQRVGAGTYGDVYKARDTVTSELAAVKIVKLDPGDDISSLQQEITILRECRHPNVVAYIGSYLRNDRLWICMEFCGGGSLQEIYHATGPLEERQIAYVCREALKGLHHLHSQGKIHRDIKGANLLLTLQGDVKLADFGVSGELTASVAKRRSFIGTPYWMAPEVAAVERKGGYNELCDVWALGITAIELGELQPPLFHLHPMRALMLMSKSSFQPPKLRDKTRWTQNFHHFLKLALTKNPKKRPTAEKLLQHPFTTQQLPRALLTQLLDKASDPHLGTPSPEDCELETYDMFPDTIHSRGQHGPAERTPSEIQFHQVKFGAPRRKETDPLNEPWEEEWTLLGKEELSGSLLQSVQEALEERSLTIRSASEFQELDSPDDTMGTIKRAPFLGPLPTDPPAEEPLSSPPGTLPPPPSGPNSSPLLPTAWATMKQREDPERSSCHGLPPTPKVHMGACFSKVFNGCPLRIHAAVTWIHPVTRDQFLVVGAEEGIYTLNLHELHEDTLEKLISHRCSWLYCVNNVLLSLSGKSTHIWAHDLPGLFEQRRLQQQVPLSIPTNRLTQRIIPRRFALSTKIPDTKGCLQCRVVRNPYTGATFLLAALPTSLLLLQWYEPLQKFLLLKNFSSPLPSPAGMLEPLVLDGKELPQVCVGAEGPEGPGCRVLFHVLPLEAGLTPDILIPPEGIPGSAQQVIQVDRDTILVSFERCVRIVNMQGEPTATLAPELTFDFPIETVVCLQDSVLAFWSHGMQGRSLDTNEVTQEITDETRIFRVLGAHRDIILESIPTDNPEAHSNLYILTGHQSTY
In assay [8] the target is Protein-tyrosine kinase 6 (Homo sapiens, UniProt Q13882). It is filed as functional.
Chain of Protein-tyrosine kinase 6 (Q13882 whole entry): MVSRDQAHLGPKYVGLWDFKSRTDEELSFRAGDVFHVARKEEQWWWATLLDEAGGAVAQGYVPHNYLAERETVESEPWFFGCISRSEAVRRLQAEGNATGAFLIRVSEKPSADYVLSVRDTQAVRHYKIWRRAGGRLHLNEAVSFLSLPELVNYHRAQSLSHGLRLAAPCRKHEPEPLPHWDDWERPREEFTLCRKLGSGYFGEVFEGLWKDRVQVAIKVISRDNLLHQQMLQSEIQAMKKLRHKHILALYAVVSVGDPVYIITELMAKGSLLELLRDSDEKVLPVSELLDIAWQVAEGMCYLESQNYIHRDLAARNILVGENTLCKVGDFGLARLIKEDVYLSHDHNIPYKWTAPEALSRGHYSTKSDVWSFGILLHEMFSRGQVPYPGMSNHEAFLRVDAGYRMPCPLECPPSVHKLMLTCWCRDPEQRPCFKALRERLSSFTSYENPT
The next assay has as its target Misshapen-like kinase 1 (Homo sapiens, UniProt Q8N4C8). It is filed as functional.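 Further: kinome panel screen with MINK as the panel member.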
The target of assay [9] is Dual specificity tyrosine-phosphorylation-regulated kinase 3 (Homo sapiens, UniProt O43781). It is filed as functional.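 Further: measured as one member of a broad kinase panel.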
In assay [10] the target is Interleukin-1 receptor-associated kinase 4 (Homo sapiens, UniProt Q9NWZ3). In kind it is functional.
Chain of Interleukin-1 receptor-associated kinase 4 (Q9NWZ3 whole entry): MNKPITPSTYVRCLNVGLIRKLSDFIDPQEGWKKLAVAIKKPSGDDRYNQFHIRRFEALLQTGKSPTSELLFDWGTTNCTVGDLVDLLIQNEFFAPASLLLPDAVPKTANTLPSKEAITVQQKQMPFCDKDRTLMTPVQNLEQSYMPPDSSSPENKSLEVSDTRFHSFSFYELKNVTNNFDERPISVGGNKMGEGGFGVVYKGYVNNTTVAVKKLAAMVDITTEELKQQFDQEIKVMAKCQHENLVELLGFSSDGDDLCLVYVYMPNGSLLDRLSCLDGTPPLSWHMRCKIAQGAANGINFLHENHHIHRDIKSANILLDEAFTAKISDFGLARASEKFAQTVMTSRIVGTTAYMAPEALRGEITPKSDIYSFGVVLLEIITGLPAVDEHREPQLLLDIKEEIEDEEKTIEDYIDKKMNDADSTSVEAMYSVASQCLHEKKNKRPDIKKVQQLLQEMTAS
In assay [11] the target is Cyclin-dependent kinase 1 (Homo sapiens, UniProt P06493). In kind it is functional.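 Further: Kinome-wide panel profiling, with the target listed as panel member CDC2.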
Chain of Cyclin-dependent kinase 1 (P06493 whole entry): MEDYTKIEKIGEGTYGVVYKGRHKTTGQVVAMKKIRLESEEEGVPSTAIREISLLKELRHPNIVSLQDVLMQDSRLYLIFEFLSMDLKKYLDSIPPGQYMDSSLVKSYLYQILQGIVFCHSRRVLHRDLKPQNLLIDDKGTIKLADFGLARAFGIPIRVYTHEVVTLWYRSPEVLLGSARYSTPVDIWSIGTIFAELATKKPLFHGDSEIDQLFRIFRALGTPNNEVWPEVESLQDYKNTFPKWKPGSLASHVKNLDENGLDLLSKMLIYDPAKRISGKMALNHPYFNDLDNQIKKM
The target of assay [12] is Serine/threonine-protein kinase TAO1 (Homo sapiens, UniProt Q7L7X3). In kind it is functional.
Assay [13] deals with Mitogen-activated protein kinase 1 (Homo sapiens, UniProt P28482). It is filed as functional.
Chain of Mitogen-activated protein kinase 1 (P28482 whole entry): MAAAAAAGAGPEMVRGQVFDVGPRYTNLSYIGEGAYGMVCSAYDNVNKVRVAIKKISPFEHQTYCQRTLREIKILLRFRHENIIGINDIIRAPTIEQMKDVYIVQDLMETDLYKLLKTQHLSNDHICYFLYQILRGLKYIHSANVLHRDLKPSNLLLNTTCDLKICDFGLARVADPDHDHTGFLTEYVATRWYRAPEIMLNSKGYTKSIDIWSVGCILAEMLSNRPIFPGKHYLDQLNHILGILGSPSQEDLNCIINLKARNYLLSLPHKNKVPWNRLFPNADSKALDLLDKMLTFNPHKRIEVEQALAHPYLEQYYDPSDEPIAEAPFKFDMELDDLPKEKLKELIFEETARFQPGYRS
Assay [14] addresses T3, Sphingosine 1-phosphate receptor 4 (Homo sapiens, UniProt O95977).
T3 sequence (O95977 whole entry): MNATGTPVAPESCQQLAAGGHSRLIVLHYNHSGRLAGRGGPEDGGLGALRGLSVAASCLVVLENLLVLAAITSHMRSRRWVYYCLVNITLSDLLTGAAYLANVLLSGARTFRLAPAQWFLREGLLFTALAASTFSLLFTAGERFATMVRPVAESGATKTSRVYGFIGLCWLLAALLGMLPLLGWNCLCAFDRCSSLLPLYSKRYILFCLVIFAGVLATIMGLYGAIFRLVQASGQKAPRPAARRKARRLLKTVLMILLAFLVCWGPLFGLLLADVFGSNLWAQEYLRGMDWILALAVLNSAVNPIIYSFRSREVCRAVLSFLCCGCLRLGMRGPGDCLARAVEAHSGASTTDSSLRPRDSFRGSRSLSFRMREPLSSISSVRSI
Briefly: Late stage fluorescence dose response cell-based screening assay for antagonists of the Sphingosine 1-Phosphate Receptor 4 (S1P4). [Related pubchem assays: 1524 (Confirmation screen (S1P4 antagonists).), 1510 (Primary screen (S1P4 antagonists).), 1853 (Summary AID (S1P4 antagonists).), 1692 (Dose response screen (S1P4 antagonists).)]. In kind it is functional.

The nature of assay [15]: Fluorescence-based cell-based high throughput dose response assay for inhibitors of the interaction of nucleotide-binding oligomerization domain containing 2 (NOD2) and the receptor-interacting serine-threonine kinase 2 (RIPK2). The conditions noted are these: Homo sapiens. In kind it is functional.
Assay [16] has as its target T4, Mannose-6-phosphate isomerase (Homo sapiens, UniProt P34949).
T4 sequence (P34949 whole entry): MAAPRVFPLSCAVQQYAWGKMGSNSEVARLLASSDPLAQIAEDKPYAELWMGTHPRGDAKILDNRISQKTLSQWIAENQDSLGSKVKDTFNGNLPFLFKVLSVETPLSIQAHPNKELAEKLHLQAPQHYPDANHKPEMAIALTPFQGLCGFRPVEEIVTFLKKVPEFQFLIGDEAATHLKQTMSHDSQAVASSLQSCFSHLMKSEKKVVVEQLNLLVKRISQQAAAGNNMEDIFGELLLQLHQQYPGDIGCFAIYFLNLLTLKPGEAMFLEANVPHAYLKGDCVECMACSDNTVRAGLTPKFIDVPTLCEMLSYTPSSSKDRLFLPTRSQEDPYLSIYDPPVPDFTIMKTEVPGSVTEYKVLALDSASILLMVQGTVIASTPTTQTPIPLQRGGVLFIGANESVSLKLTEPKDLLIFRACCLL
Briefly: MPI inhibition at elevated mannose 6-phosphate – biochemical, fluorescence intensity, high mannose 6-phosphate, primary screen (AID 1220).

For assay [17], the target named is C-C chemokine receptor type 6 (Homo sapiens, UniProt P51684). Briefly: antagonism of CCR6 beta-arrestin recruitment – cell-based, luminescent beta-arrestin readout, dose response (AID 504728). In kind it is functional.
Chain of C-C chemokine receptor type 6 (P51684 whole entry): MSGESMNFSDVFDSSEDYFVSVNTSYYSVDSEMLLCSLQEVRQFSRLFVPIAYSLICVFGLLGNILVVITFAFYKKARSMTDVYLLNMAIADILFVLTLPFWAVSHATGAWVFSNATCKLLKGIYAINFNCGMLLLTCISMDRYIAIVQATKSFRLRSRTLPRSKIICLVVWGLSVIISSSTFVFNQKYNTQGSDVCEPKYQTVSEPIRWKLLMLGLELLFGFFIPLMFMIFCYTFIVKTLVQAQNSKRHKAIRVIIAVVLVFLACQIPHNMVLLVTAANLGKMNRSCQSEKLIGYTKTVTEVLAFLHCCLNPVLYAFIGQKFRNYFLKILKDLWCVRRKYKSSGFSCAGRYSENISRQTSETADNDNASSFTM
Assay [18] has as its target Kappa-type opioid receptor (Homo sapiens, UniProt P41145). In kind it is functional.
For the next assay, the target named is Beta-galactosidase (Escherichia coli, UniProt Q8VNN2). It is filed as functional.

One may read the Ki as a measure of affinity in units of concentration, obtained from inhibition or displacement. The term EC50 denotes the midpoint of the concentration-response curve. One may read the IC50 as the concentration at which inhibition is half-maximal.

Chain of Misshapen-like kinase 1 (Q8N4C8 whole entry): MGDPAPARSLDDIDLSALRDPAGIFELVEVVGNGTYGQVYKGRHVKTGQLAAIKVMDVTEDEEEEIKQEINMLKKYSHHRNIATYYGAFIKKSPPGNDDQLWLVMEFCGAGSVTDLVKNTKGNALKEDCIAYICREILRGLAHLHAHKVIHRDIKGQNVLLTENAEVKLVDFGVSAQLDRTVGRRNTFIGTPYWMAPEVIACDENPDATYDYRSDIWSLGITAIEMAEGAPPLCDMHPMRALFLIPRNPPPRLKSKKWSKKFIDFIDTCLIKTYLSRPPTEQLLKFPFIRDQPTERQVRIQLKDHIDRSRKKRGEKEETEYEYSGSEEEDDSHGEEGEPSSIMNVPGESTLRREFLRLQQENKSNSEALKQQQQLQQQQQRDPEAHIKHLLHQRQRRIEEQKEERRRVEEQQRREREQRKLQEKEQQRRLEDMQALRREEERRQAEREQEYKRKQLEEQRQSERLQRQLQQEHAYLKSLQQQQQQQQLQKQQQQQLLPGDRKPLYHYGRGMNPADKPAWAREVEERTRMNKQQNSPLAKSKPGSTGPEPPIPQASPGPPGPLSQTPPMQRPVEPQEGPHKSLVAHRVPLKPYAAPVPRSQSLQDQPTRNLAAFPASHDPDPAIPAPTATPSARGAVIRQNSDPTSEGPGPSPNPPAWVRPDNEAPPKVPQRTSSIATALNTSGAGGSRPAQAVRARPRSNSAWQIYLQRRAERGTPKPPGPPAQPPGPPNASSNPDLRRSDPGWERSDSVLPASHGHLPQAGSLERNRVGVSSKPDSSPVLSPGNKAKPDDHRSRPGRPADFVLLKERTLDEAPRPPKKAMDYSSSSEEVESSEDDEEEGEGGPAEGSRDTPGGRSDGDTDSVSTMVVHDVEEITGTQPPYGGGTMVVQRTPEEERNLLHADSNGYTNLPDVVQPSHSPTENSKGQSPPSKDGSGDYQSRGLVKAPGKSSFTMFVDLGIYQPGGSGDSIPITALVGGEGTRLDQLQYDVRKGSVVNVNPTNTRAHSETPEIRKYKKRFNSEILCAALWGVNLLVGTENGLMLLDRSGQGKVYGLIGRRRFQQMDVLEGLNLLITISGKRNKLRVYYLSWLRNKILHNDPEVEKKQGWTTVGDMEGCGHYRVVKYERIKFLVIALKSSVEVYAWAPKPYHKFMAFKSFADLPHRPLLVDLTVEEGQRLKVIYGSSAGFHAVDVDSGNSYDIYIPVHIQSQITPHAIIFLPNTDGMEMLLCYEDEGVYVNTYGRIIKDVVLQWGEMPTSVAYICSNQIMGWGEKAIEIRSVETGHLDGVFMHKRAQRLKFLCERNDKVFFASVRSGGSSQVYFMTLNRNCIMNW

Regarding `COc1cc2c(cc1F)C(c1ccccc1Cl)=Nc1c(n[nH]c1C)N2` [RG-1530], in [1], the inhibition constant Ki is 0.126 µM (active).

Turning to `O=C(O)c1ccc2c3c(ncnc13)-c1ccccc1C2=O`, the half-maximal effective concentration (EC50) on Streptokinase A is 16 µM (active); in assay [2] it was 34.8 µM (active); in assay [3] it was 13.4 µM (active); in assay [4], 2.48 µM (active); in the assay with Streptococcus it was > 150 µM (not active).

Turning to `Cc1nn(C)c2sc3c(=O)[nH]cnc3c12`, in assay [5], the Ki is 79.4 µM (active).

As for `Cc1ccc2nccc(NC(=O)Nc3cccc(C(F)(F)F)n3)c2c1`, the Ki in [6] is > 5.01 µM (inactive); in assay [7], > 6.31 µM (inactive); in assay [8], 0.398 µM (active); at Misshapen-like kinase 1 it was 0.2 µM (active); in [9], > 6.31 µM (inactive); in assay [10], > 10 µM (inactive). Moreover, the values for the inhibition constant (Ki) in [11], in assay [12] and in assay [13] were 0.501 µM (active), > 6.31 µM (inactive) and > 7.94 µM (inactive), respectively.

Turning to `COC(=O)CCS(=O)(=O)c1nc(-c2ccccc2)cc(C(F)(F)F)n1`, the IC50 in assay [14] was 3.45 µM (not active); in assay [15], 3.08 µM (active).

As to `Cc1c(/N=C2\C=CC(=O)c3ccccc32)c(=O)n(-c2ccccc2)n1C`, the half-maximal inhibitory concentration (IC50) in assay [16] was 46.4 µM (active); in assay [17] it was > 66.6 µM (inactive); in assay [18], more than 32 µM. The EC50 at Beta-galactosidase was > 31.5 µM (inactive).
